{"source": "patent US20160095343A1", "about": "“Synbiotic Product” (Tate & Lyle Ingredients Americas LLC, priority 2010, published 2016)", "type_in_all_cases": "cell-based", "key": {"[1]": {"test_system": "B. coagulans strain GBI-30", "experiment": "Comparison of maximum growth of B. coagulans on various carbohydrates (Example 2)", "settings": "carbohydrate at ~10 g/L, against no added carbohydrates", "from_the_text": "The maximum growth of probiotic B. coagulans strain GBI-30 (ATCC Designation Number PTA-6086; U.S. Pat. No. 6,849,256) (Ganeden Biotech, Inc.; Mayfield Heights, Ohio) was compared on the carbohydrates arabinoxylan, xylose, and dextrose at ˜10 g/L and against addition of no carbohydrates (FIG. 2)."}, "B. pumilus": {"test_system": "B. pumilus", "experiment": "Growth of probiotic Bacillus on prebiotic carbohydrates (Example 1)", "settings": "carbohydrate at 10 g/L", "procedure": "(§1) Four commercial spore-forming probiotic Bacillus strains were grown on prebiotic carbohydrates at 10 g/L. (See FIG. 1). The four strains were B. pumilus, B. licheniformis, B. subtilis, and B. coagulans. The prebiotic carbohydrates were high molecular weight arabinoxylan (AX), xylose (X), soluble fiber dextrin (waxy) (SFDw), soluble corn fiber (85) (SCF), and polydextrose (PDX). As a measure of the significance of the data shown in FIG. 1, Table 1 indicates P values for the B. coagulans data."}, "B. subtilis": {"test_system": "B. subtilis", "experiment": "Growth of probiotic Bacillus on prebiotic carbohydrates (Example 1)", "settings": "carbohydrate at 10 g/L", "procedure": "as §1"}, "B. coagulans": {"test_system": "B. coagulans", "experiment": "Growth of probiotic Bacillus on prebiotic carbohydrates (Example 1)", "settings": "carbohydrate at 10 g/L", "procedure": "as §1"}, "B. licheniformis": {"test_system": "B. licheniformis", "experiment": "Growth of probiotic Bacillus on prebiotic carbohydrates (Example 1)", "settings": "carbohydrate at 10 g/L", "procedure": "as §1"}}}
{"smiles": "O=C[C@H](O)[C@@H](O)[C@H](O)CO", "note": "[xylose]", "values": [{"measurement": "maximum growth of B. coagulans strain GBI-30 on the carbohydrate", "setting": "[1]", "result": "strong growth"}, {"measurement": "growth of B. pumilus on the prebiotic carbohydrate", "setting": "B. pumilus", "result": "did not appear able to grow"}, {"measurement": "growth of B. subtilis on the prebiotic carbohydrate", "setting": "B. subtilis", "result": "grew"}, {"measurement": "growth of B. coagulans on the prebiotic carbohydrate", "setting": "B. coagulans", "result": "grew"}, {"measurement": "growth of B. licheniformis on the prebiotic carbohydrate", "setting": "B. licheniformis", "result": "limited growth"}]}
